According to ChEMBL document CHEMBL4507296 (2021):

Columns and labels:
[1] = test system: Mast/stem cell growth factor receptor Kit (Homo sapiens), P10721 [V559D,V654A]; settings: Compound concentration 1000.0 nM
[2] = target: Ephrin type-B receptor 1 (Homo sapiens) (UniProt P54762); settings: Compound concentration 1000.0 nM
[3] = target: Serine/threonine-protein kinase TNNI3K (Homo sapiens) (UniProt Q59H18); settings: Compound concentration 1000.0 nM
[4] = target: Proto-oncogene tyrosine-protein kinase receptor Ret (Homo sapiens) (UniProt P07949); settings: Compound concentration 1000.0 nM
[5] = target: Tyrosine-protein kinase ABL1 (Homo sapiens) (UniProt P00519); settings: Compound concentration 1000.0 nM
[6] = target: Serine/threonine-protein kinase MAK (Homo sapiens) (UniProt P20794); settings: Compound concentration 1000.0 nM
[7] = target: ALK tyrosine kinase receptor (Homo sapiens) (UniProt Q9UM73); settings: Compound concentration 1000.0 nM
[8] = target: Tyrosine-protein kinase JAK1 (Homo sapiens) (UniProt P23458); settings: Compound concentration 1000.0 nM
[9] = target: NUAK family SNF1-like kinase 1 (Homo sapiens) (UniProt O60285); settings: Compound concentration 1000.0 nM
[10] = target: T1, Alpha-2B adrenergic receptor (Homo sapiens) (UniProt P18089); test: Adrenergic a2b (human) CEREP ligand profiling; settings: Compound concentration 10.0 uM
T1 sequence (whole entry): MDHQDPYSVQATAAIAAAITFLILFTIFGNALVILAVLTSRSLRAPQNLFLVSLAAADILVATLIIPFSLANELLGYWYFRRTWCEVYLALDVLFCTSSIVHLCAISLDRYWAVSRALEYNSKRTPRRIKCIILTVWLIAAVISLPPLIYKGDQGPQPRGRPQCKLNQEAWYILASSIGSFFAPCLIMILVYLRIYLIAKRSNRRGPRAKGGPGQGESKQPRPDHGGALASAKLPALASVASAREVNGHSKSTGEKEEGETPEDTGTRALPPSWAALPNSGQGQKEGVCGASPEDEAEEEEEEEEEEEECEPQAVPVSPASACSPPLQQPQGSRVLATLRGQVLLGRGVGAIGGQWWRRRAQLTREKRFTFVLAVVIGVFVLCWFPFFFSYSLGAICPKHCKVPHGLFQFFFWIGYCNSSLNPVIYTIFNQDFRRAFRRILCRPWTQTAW

[11] = target: Cyclin-dependent kinase 19 (Homo sapiens) (UniProt Q9BWU1); settings: Compound concentration 1000.0 nM
[12] = target: Ribosomal protein S6 kinase alpha-2 (Homo sapiens) (UniProt Q15349); settings: Compound concentration 1000.0 nM
[13] = target: Serine/threonine-protein kinase 3 (Homo sapiens) (UniProt Q13188); settings: Compound concentration 1000.0 nM
[14] = target: Sigma non-opioid intracellular receptor 1 (Homo sapiens) (UniProt Q99720); settings: Compound concentration 10.0 uM
[15] = target: Tyrosine-protein kinase receptor Tie-1 (Homo sapiens) (UniProt P35590); settings: Compound concentration 1000.0 nM
[16] = target: Cyclin-dependent kinase-like 5 (Homo sapiens) (UniProt O76039); settings: Compound concentration 1000.0 nM
[17] = target: STE20/SPS1-related proline-alanine-rich protein kinase (Homo sapiens) (UniProt Q9UEW8); settings: Compound concentration 1000.0 nM
[18] = target: Tyrosine-protein kinase BTK (Homo sapiens) (UniProt Q06187); settings: Compound concentration 1000.0 nM
[19] = target: cAMP-dependent protein kinase catalytic subunit PRKX (Homo sapiens) (UniProt P51817); settings: Compound concentration 1000.0 nM
[20] = test system: Epidermal growth factor receptor (Homo sapiens), P00533 [G719S]; settings: Compound concentration 1000.0 nM
[21] = target: MAP kinase-interacting serine/threonine-protein kinase 2 (Homo sapiens) (UniProt Q9HBH9); settings: Compound concentration 1000.0 nM
[22] = target: Dual specificity mitogen-activated protein kinase kinase 6 (Homo sapiens) (UniProt P52564); settings: Compound concentration 1000.0 nM
[23] = target: Tyrosine-protein kinase ABL2 (Homo sapiens) (UniProt P42684); settings: Compound concentration 1000.0 nM
[24] = target: 5-hydroxytryptamine receptor 2B (Homo sapiens) (UniProt P41595); settings: Compound concentration 10.0 uM
[25] = target: Insulin-like growth factor 1 receptor (Homo sapiens) (UniProt P08069); settings: Compound concentration 1000.0 nM
[26] = target: Focal adhesion kinase 1 (Homo sapiens) (UniProt Q05397); settings: Compound concentration 1000.0 nM
[27] = target: Uncharacterized serine/threonine-protein kinase SBK3 (Homo sapiens) (UniProt P0C264); settings: Compound concentration 1000.0 nM
[28] = test system: Phosphatidylinositol 4,5-bisphosphate 3-kinase catalytic subunit alpha isoform (Homo sapiens), P42336 [E545K]; settings: Compound concentration 1000.0 nM
[29] = test system: Receptor-type tyrosine-protein kinase FLT3 (Homo sapiens), P36888 [UNDEFINED MUTATION]; settings: Compound concentration 1000.0 nM
[30] = target: RAF proto-oncogene serine/threonine-protein kinase (Homo sapiens) (UniProt P04049); settings: Compound concentration 1000.0 nM
[31] = test system: Receptor-type tyrosine-protein kinase FLT3 (Homo sapiens), P36888 [D835H]; settings: Compound concentration 1000.0 nM
[32] = target: Serine/threonine-protein kinase N2 (Homo sapiens) (UniProt Q16513); settings: Compound concentration 1000.0 nM
[33] = target: 5-hydroxytryptamine receptor 2A (Homo sapiens) (UniProt P28223); settings: Compound concentration 10.0 uM
[34] = target: Tyrosine-protein kinase receptor TYRO3 (Homo sapiens) (UniProt Q06418); settings: Compound concentration 1000.0 nM
[35] = target: Ephrin type-A receptor 1 (Homo sapiens) (UniProt P21709); settings: Compound concentration 1000.0 nM
[36] = target: 5-hydroxytryptamine receptor 5A (Homo sapiens) (UniProt P47898); settings: Compound concentration 10.0 uM
[37] = test system: Epidermal growth factor receptor (Homo sapiens), P00533 [UNDEFINED MUTATION]; settings: Compound concentration 1000.0 nM
[38] = target: Beta-2 adrenergic receptor (Homo sapiens) (UniProt P07550); settings: Compound concentration 10.0 uM

Sequence of Uncharacterized serine/threonine-protein kinase SBK3 (Homo sapiens) (P0C264 whole entry, canonical isoform): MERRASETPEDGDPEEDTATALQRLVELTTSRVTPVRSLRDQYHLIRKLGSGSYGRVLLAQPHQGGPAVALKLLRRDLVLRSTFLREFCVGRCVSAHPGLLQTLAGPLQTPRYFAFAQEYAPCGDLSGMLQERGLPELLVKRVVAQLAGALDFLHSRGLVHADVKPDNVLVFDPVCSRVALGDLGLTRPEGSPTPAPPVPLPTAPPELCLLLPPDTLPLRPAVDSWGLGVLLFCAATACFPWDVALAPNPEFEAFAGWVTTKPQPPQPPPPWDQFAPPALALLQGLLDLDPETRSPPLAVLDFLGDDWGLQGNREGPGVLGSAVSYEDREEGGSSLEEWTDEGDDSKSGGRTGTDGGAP
Sequence of Tyrosine-protein kinase JAK1 (Homo sapiens) (P23458 whole entry): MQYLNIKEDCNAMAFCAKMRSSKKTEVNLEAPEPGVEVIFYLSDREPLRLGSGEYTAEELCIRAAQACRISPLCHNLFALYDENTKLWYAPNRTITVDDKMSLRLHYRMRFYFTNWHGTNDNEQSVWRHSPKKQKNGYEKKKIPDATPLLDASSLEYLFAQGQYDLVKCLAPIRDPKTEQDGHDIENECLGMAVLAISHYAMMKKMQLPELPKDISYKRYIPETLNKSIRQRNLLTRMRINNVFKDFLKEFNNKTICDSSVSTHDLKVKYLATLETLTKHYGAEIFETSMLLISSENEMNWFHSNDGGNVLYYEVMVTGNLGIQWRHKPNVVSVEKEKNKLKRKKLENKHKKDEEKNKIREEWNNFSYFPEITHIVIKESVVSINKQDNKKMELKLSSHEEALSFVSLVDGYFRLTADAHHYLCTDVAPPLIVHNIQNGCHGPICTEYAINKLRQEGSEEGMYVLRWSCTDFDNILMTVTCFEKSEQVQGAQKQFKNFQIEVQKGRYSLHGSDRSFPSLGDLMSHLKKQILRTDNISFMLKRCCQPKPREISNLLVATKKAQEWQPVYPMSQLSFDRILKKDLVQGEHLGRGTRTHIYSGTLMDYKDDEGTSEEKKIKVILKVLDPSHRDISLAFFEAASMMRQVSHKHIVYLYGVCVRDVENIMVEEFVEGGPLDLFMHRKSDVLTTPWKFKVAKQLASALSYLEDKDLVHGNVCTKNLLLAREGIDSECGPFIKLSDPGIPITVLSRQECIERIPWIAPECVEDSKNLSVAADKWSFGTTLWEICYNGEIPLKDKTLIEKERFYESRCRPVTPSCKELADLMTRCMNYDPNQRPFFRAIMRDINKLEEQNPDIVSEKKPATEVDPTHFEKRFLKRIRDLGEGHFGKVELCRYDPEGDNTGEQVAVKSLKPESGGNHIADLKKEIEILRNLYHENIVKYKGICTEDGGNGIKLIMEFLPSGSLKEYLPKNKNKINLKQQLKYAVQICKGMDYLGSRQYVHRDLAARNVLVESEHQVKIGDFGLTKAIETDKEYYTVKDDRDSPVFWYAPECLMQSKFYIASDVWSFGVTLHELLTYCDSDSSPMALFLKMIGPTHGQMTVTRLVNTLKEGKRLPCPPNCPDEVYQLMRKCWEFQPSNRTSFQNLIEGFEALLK
Sequence of Tyrosine-protein kinase ABL1 (Homo sapiens) (P00519 whole entry): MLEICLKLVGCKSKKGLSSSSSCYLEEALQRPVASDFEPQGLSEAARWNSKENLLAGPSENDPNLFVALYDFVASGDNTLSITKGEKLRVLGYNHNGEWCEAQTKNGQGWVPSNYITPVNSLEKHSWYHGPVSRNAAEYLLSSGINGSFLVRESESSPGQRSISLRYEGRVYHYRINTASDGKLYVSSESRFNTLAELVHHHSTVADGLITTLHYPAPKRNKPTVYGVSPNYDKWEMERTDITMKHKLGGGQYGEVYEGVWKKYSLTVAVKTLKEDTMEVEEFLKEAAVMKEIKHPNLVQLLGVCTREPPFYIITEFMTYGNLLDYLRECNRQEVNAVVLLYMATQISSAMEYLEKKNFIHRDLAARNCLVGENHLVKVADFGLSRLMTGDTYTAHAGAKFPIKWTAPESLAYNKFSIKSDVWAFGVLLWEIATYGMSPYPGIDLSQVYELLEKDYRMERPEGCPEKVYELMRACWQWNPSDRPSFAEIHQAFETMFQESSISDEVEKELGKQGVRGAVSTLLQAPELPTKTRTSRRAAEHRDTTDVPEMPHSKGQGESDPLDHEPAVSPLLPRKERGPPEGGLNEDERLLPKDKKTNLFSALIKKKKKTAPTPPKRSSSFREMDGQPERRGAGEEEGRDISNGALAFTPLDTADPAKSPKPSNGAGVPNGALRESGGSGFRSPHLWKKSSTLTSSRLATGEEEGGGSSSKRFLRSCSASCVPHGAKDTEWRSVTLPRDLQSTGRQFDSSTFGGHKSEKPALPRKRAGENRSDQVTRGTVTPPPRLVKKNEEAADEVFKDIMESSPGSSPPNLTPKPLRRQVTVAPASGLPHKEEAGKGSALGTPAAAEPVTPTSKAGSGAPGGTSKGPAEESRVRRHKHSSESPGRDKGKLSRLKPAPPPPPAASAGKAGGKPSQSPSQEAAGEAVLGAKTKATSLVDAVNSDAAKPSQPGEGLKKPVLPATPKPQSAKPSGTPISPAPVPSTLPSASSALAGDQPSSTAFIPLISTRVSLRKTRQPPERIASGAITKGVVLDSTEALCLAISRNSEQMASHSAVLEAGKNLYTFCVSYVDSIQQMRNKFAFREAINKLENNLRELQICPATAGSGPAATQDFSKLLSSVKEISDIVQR
Sequence of ALK tyrosine kinase receptor (Homo sapiens) (Q9UM73 19-1620 limits assumed): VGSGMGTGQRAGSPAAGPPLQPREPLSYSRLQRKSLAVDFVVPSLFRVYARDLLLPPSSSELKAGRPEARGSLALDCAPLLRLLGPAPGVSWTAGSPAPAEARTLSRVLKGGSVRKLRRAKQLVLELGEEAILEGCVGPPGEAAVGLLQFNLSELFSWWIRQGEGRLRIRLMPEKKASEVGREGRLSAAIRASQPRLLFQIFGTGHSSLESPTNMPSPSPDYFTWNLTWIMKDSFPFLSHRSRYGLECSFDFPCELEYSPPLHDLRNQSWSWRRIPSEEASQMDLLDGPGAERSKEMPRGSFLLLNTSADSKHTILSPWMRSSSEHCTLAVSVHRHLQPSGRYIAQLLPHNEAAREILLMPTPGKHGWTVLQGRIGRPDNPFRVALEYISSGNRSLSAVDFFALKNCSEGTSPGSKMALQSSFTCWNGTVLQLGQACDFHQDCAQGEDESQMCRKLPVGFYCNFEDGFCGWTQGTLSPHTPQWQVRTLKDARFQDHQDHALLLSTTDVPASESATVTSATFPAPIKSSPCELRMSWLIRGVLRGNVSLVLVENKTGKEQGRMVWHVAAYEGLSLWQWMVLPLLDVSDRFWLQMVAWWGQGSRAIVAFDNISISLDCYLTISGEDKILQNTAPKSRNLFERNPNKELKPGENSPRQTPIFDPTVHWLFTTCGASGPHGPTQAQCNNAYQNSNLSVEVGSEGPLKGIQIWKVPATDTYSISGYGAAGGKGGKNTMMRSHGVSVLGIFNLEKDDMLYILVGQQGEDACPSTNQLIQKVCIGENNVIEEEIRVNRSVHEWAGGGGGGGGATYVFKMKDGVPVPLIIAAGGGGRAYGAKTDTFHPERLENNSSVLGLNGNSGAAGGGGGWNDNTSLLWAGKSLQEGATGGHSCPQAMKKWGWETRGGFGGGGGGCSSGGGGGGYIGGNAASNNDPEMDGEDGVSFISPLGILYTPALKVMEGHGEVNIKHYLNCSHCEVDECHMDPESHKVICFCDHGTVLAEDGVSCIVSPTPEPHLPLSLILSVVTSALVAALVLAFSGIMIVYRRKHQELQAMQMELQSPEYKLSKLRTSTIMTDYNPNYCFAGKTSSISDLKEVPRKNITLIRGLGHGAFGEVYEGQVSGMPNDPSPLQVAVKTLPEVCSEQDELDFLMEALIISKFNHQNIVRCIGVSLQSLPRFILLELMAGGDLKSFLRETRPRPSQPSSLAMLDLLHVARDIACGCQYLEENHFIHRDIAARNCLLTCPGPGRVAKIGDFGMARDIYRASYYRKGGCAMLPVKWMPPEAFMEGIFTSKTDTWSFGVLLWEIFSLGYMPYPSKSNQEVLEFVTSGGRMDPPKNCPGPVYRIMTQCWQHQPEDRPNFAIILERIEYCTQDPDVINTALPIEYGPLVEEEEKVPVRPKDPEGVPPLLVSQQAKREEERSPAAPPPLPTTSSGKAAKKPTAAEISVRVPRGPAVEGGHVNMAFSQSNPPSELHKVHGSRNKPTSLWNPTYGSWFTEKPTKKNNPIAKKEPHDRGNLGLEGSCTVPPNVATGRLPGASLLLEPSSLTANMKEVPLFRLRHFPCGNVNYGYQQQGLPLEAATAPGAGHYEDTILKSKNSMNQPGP
Sequence of RAF proto-oncogene serine/threonine-protein kinase (Homo sapiens) (P04049 whole entry): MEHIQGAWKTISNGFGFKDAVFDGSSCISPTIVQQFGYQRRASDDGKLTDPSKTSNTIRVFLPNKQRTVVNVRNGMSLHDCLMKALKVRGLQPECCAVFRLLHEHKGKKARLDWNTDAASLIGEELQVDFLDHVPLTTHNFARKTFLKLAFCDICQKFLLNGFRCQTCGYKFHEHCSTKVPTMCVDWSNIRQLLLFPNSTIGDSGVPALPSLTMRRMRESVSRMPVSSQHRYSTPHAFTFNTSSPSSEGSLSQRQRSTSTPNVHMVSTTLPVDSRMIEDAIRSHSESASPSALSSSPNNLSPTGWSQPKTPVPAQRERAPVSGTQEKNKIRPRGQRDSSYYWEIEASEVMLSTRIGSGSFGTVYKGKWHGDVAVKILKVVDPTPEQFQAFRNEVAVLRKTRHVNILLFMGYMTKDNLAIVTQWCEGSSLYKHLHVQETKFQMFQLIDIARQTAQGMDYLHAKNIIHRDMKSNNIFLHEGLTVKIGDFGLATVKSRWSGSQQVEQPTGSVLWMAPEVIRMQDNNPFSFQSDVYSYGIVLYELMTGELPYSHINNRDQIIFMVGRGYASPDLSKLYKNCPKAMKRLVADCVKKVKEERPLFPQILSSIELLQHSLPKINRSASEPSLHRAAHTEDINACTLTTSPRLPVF

C[C@H](c1ccc(F)cc1)N(Cc1cccc(C(=O)O)c1)C(=O)c1cnc2ccccc2c1 [PF-05105679]
inactive: residual activity [1] 100% | residual activity [2] 83% | residual activity [3] 97% | residual activity [4] 100% | residual activity [5] 100% | residual activity [6] 100% | residual activity [7] 94% | residual activity [8] 100% | residual activity [9] 100% | inhibition [10] 21% | residual activity [11] 100% | residual activity [12] 100% | residual activity [13] 100% | inhibition [14] 16% | residual activity [15] 93% | residual activity [16] 100% | residual activity [17] 82% | residual activity [18] 95% | residual activity [19] 100% | residual activity [20] 100% | residual activity [21] 74% | residual activity [22] 100% | residual activity [23] 82% | inhibition [24] 0.7% | residual activity [25] 100% | residual activity [26] 93% | residual activity [27] 100% | residual activity [28] 100% | residual activity [29] 99% | residual activity [30] 100% | residual activity [31] 84% | residual activity [32] 86% | inhibition [33] -0.2% | residual activity [34] 100% | residual activity [35] 100% | inhibition [36] -1.89% | residual activity [37] 100% | inhibition [38] 23.7%
